Reference: US8754128B2, “Dioxoanthracene sulphonate derivatives” (Laboratoire Medidom SA, priority 2007, dated 2014)
Converted amounts (≈) assume the structure as drawn.

Legend:
colon and kidney cells = settings: Comet assay, Müller et al. 1996; cited from earlier work
Solubility in water = assay type: physicochemical; settings: for solubility of test solutions for chondrocyte culture: rhein needed five minutes sonication; for solubility in water (in words): water / aqueous solution
[1] = test system: IL-1 β cytokine production by human normal and osteoarthritic (OA) chondrocytes; experiment: In vitro IL-1β inhibition in LPS-stimulated human chondrocytes (ELISA); assay type: cell-based
From the text: The activity of the compound of example 1, and of rhein in inhibiting the lipopolysaccharide (LPS) stimulated production of IL-1 β cytokine by human normal and osteoarthritic (OA) chondrocytes was studied.
Human cartilage was obtained during orthopaedic surgery for total hip prosthesis due to traumatic fracture in normal subjects or OA patients. Patients with OA were selected on the basis of the following criteria (1) bi-lateral OA, (2) diagnoses of moderate OA (grade I-III, Kellgren-Laurence), supported by radiology and pathology.
A suspension of isolated chondrocytes was prepared from cartilage specimens obtained from four OA patient and nine normal subjects. Specimens were obtained and maintained under aseptic conditions. The cartilage was cut into small fragments and incubated with 1 mg/ml clostridial collagenase in carbonate/bicarbonate buffer for 48 hours at 37° C. Once separated from the cartilage matrix, chondrocytes were centrifuged at 1500 RPM for five minutes. The separated chondrocytes, suspended in culture medium (DMEM supplemented with 10% SCF) were used for the experiment. Cell viability was evaluated by Trypan blue exclusion.
In vitro stimulation of chondrocytes with bacterial endotoxin (LPS) for the production of IL-1 β was carried out as follows: […]

SMILES | solubility of test solutions for chondrocyte culture (Solubility in water) | solubility in water (in words) (Solubility in water) | also measured
O=C1c2cccc(O)c2C(=O)c2c(O)cc(CO)cc21 [Aloe-emodin] |  |  | clastogenic effect (colon and kidney cells): clastogenic effect in colon and kidney cells
O=C(O)c1cc(O)c2c(c1)C(=O)c1ccc(S(=O)(=O)O)c(O)c1C2=O [Example 1, 6-sulfo-4,5-dihydroxy-9,10-dioxo-2-anthracene carboxylic acid] | good solubility |  | solubility (Solubility in water; water): 1200 µg/mL (≈ 3.29 mM); IL-1β inhibition activity compared with rhein (FIG. 3) ([1]; LPS-stimulated normal and OA chondrocytes, 48 hours, ELISA): significantly increased IL-1β inhibition activity compared with rhein; inhibition of IL-1β production (FIG. 4) ([1]; LPS-stimulated normal chondrocytes, dose-dependent): significant inhibition of IL-1β production
CC(=O)Oc1cccc2c1C(=O)c1c(OC(C)=O)cc(C(=O)O)cc1C2=O [diacerein] |  | practically insoluble in water | 
O=C(O)c1cc(O)c2c(c1)C(=O)c1cccc(O)c1C2=O [rhein, 4,5-dihydroxy-9,10-dioxo-2-anthracene carboxylic acid] | solubility problems | practically insoluble in water | 
